# Source: ChEMBL document CHEMBL3885861, “Open TG-GATES”
# Species: Rattus norvegicus
# Test: Open TG-GATES - Regimen: Daily Repeat
# Assay type: toxicity, organism-based, Sprague-Dawley
# Parameters: regimen Daily Repeat, gender Male, age 6 weeks
# Details: in vivo, po, route gavage; for APTT / Bas / Eos / Fbg / Hb / Ht / Lym / MCH / MCHC / MCV / Mono / Neu / PT / Plat / RBC / Ret / WBC: tissue Blood; for KIDNEY_L / KIDNEY_R / KIDNEY_TOTAL: tissue Kidney; for LIVER: tissue Liver; for ALP / ALT / AST / BUN / CRE / DBIL / GLC / K / Na / PL / RALB / TBIL / TC / TG / TP / gamma-GTP: tissue Plasma
# [1] = 75 mg/kg, 72 h, dose level Middle, time 3 day
# [2] = 75 mg/kg, […], dose level Middle, time 7 day
# [3] = 75 mg/kg, […], dose level Middle, time 14 day
# [4] = 75 mg/kg, […], dose level Middle, time 28 day
# [5] = 250 mg/kg, 72 h, dose level High, time 3 day
# [6] = 250 mg/kg, […], dose level High, time 7 day
# [7] = 250 mg/kg, […], dose level High, time 14 day
# [8] = 250 mg/kg, […], dose level High, time 28 day
compound,measurement,setting,value
CN1C(=O)CN=C(c2ccccc2)c2cc(Cl)ccc21 [DIAZEPAM],TERMINAL_BW,[1],244.2 g
same,APTT,[1],16.3 s
same,Bas,[1],0%
same,Eos,[1],1.2%
same,Fbg,[1],235.6 mg/dL
same,Hb,[1],13.7 g/dL
same,Ht,[1],41.3%
same,Lym,[1],77.4%
same,MCH,[1],21.3 pg
same,MCHC,[1],33.3%
same,MCV,[1],64.1 fL
same,Mono,[1],6%
same,Neu,[1],15.8%
same,PT,[1],11.6 s
same,Plat,[1],112.9 x10_4/uL
same,RBC,[1],644 x10_4/ul
same,Ret,[1],6.3%
same,WBC,[1],129.7 x10_2/uL
same,KIDNEY_L,[1],1.1 g
same,KIDNEY_R,[1],1 g
same,KIDNEY_TOTAL,[1],2.1 g
same,LIVER,[1],12.5 g
same,ALP,[1],782.4 IU/L
same,ALT,[1],33.2 IU/L
same,AST,[1],62.6 IU/L
same,BUN,[1],19 mg/dL
same,CRE,[1],0.6 mg/dL
same,DBIL,[1],0.008 mg/dL
same,GLC,[1],194.2 mg/dL
same,K,[1],5 meq/L
same,Na,[1],138.7 meq/L
same,PL,[1],164.2 mg/dL
same,RALB,[1],4.1 g/dL
same,TBIL,[1],0.4 mg/dL
same,TC,[1],90.8 mg/dL
same,TG,[1],99.2 mg/dL
same,TP,[1],6 g/dL
same,gamma-GTP,[1],0.8 IU/L
same,TERMINAL_BW,[2],272.1 g
same,TERMINAL_BW,[3],328 g
same,TERMINAL_BW,[4],403 g
same,APTT,[2],16.8 s
same,Bas,[2],0%
same,Eos,[2],1%
same,Fbg,[2],230.6 mg/dL
same,Hb,[2],14.3 g/dL
same,Ht,[2],43.5%
same,Lym,[2],77.8%
same,MCH,[2],21 pg
same,MCHC,[2],32.9%
same,MCV,[2],63.8 fL
same,Mono,[2],5.8%
same,Neu,[2],15.4%
same,PT,[2],11.4 s
same,Plat,[2],107.7 x10_4/uL
same,RBC,[2],682.8 x10_4/ul
same,Ret,[2],5.5%
same,WBC,[2],100.7 x10_2/uL
same,APTT,[3],16.7 s
same,Bas,[3],0%
same,Eos,[3],0.6%
same,Fbg,[3],228.6 mg/dL
same,Hb,[3],14.6 g/dL
same,Ht,[3],43.7%
same,Lym,[3],82.6%
same,MCH,[3],21.1 pg
same,MCHC,[3],33.4%
same,MCV,[3],63 fL
same,Mono,[3],3.8%
same,Neu,[3],12.8%
same,PT,[3],11.8 s
same,Plat,[3],111.6 x10_4/uL
same,RBC,[3],694.4 x10_4/ul
same,Ret,[3],4.9%
same,WBC,[3],142.4 x10_2/uL
same,APTT,[4],17.8 s
same,Bas,[4],0%
same,Eos,[4],1.2%
same,Fbg,[4],236.6 mg/dL
same,Hb,[4],15.2 g/dL
same,Ht,[4],45.7%
same,Lym,[4],80.4%
same,MCH,[4],19 pg
same,MCHC,[4],33.3%
same,MCV,[4],57 fL
same,Mono,[4],3.6%
same,Neu,[4],14.4%
same,PT,[4],12 s
same,Plat,[4],106.3 x10_4/uL
same,RBC,[4],802.8 x10_4/ul
same,Ret,[4],2.6%
same,WBC,[4],121 x10_2/uL
same,KIDNEY_L,[2],1.2 g
same,KIDNEY_R,[2],1.2 g
same,KIDNEY_TOTAL,[2],2.3 g
same,KIDNEY_L,[3],1.3 g
same,KIDNEY_R,[3],1.4 g
same,KIDNEY_TOTAL,[3],2.7 g
same,KIDNEY_L,[4],1.4 g
same,KIDNEY_R,[4],1.5 g
same,KIDNEY_TOTAL,[4],2.9 g
same,LIVER,[2],13.9 g
same,LIVER,[3],15.5 g
same,LIVER,[4],17.7 g
same,ALP,[2],755 IU/L
same,ALT,[2],36.8 IU/L
same,AST,[2],57.8 IU/L
same,BUN,[2],16.4 mg/dL
same,CRE,[2],0.6 mg/dL
same,DBIL,[2],0.01 mg/dL
same,GLC,[2],199 mg/dL
same,K,[2],4.5 meq/L
same,Na,[2],138.9 meq/L
same,PL,[2],155.2 mg/dL
same,RALB,[2],4.2 g/dL
same,TBIL,[2],0.3 mg/dL
same,TC,[2],81.8 mg/dL
same,TG,[2],86.4 mg/dL
same,TP,[2],6.2 g/dL
same,gamma-GTP,[2],1.2 IU/L
same,ALP,[3],627.6 IU/L
same,ALT,[3],32.8 IU/L
same,AST,[3],59.2 IU/L
same,BUN,[3],16 mg/dL
same,CRE,[3],0.6 mg/dL
same,DBIL,[3],0.006 mg/dL
same,GLC,[3],194.8 mg/dL
same,K,[3],4.4 meq/L
same,Na,[3],141.1 meq/L
same,PL,[3],144.8 mg/dL
same,RALB,[3],4 g/dL
same,TBIL,[3],0.4 mg/dL
same,TC,[3],74.6 mg/dL
same,TG,[3],87.4 mg/dL
same,TP,[3],6.1 g/dL
same,gamma-GTP,[3],1 IU/L
same,ALP,[4],410.4 IU/L
same,ALT,[4],32.2 IU/L
same,AST,[4],56.8 IU/L
same,BUN,[4],20.2 mg/dL
same,CRE,[4],0.6 mg/dL
same,DBIL,[4],0.012 mg/dL
same,GLC,[4],192.4 mg/dL
same,K,[4],4.2 meq/L
same,Na,[4],139.9 meq/L
same,PL,[4],151.4 mg/dL
same,RALB,[4],4.1 g/dL
same,TBIL,[4],0.3 mg/dL
same,TC,[4],74 mg/dL
same,TG,[4],136 mg/dL
same,TP,[4],6.7 g/dL
same,gamma-GTP,[4],0.4 IU/L
same,TERMINAL_BW,[5],237.9 g
same,APTT,[5],16.2 s
same,Bas,[5],0%
same,Eos,[5],1%
same,Fbg,[5],230.6 mg/dL
same,Hb,[5],14 g/dL
same,Ht,[5],42%
same,Lym,[5],78.8%
same,MCH,[5],21.5 pg
same,MCHC,[5],33.3%
same,MCV,[5],64.8 fL
same,Mono,[5],6.2%
same,Neu,[5],14.2%
same,PT,[5],11.6 s
same,Plat,[5],103.3 x10_4/uL
same,RBC,[5],648.4 x10_4/ul
same,Ret,[5],5.6%
same,WBC,[5],126.1 x10_2/uL
same,KIDNEY_L,[5],1.1 g
same,KIDNEY_R,[5],1.1 g
same,KIDNEY_TOTAL,[5],2.1 g
same,LIVER,[5],12.6 g
same,ALP,[5],891.8 IU/L
same,ALT,[5],47.4 IU/L
same,AST,[5],68.8 IU/L
same,BUN,[5],17.2 mg/dL
same,CRE,[5],0.6 mg/dL
same,DBIL,[5],0.024 mg/dL
same,GLC,[5],201.4 mg/dL
same,K,[5],4.8 meq/L
same,Na,[5],138.9 meq/L
same,PL,[5],173.6 mg/dL
same,RALB,[5],3.8 g/dL
same,TBIL,[5],0.3 mg/dL
same,TC,[5],113.4 mg/dL
same,TG,[5],59.8 mg/dL
same,TP,[5],5.9 g/dL
same,gamma-GTP,[5],1.8 IU/L
same,TERMINAL_BW,[6],268.4 g
same,TERMINAL_BW,[7],309.4 g
same,TERMINAL_BW,[8],402.6 g
same,APTT,[6],17.2 s
same,Bas,[6],0%
same,Eos,[6],1.2%
same,Fbg,[6],211.8 mg/dL
same,Hb,[6],13.7 g/dL
same,Ht,[6],40.8%
same,Lym,[6],76.6%
same,MCH,[6],21.6 pg
same,MCHC,[6],33.5%
same,MCV,[6],64.6 fL
same,Mono,[6],6%
same,Neu,[6],16.6%
same,PT,[6],11.6 s
same,Plat,[6],128 x10_4/uL
same,RBC,[6],633.8 x10_4/ul
same,Ret,[6],5.9%
same,WBC,[6],144 x10_2/uL
same,APTT,[7],18.5 s
same,Bas,[7],0%
same,Eos,[7],0.8%
same,Fbg,[7],245.8 mg/dL
same,Hb,[7],14.6 g/dL
same,Ht,[7],43.8%
same,Lym,[7],79%
same,MCH,[7],20.6 pg
same,MCHC,[7],33.4%
same,MCV,[7],61.8 fL
same,Mono,[7],4.6%
same,Neu,[7],15.6%
same,PT,[7],11.9 s
same,Plat,[7],106.7 x10_4/uL
same,RBC,[7],709.4 x10_4/ul
same,Ret,[7],4.3%
same,WBC,[7],144 x10_2/uL
same,APTT,[8],20.2 s
same,Bas,[8],0%
same,Eos,[8],1%
same,Fbg,[8],252 mg/dL
same,Hb,[8],15.4 g/dL
same,Ht,[8],45.8%
same,Lym,[8],81.4%
same,MCH,[8],19.7 pg
same,MCHC,[8],33.6%
same,MCV,[8],58.5 fL
same,Mono,[8],4.2%
same,Neu,[8],13.4%
same,PT,[8],12.2 s
same,Plat,[8],109.3 x10_4/uL
same,RBC,[8],782.2 x10_4/ul
same,Ret,[8],3%
same,WBC,[8],179.4 x10_2/uL
same,KIDNEY_L,[6],1.2 g
same,KIDNEY_R,[6],1.2 g
same,KIDNEY_TOTAL,[6],2.4 g
same,KIDNEY_L,[7],1.3 g
same,KIDNEY_R,[7],1.4 g
same,KIDNEY_TOTAL,[7],2.7 g
same,KIDNEY_L,[8],1.6 g
same,KIDNEY_R,[8],1.6 g
same,KIDNEY_TOTAL,[8],3.2 g
same,LIVER,[6],14.5 g
same,LIVER,[7],16.6 g
same,LIVER,[8],19.7 g
same,ALP,[6],732.8 IU/L
same,ALT,[6],35.4 IU/L
same,AST,[6],64.8 IU/L
same,BUN,[6],17.2 mg/dL
same,CRE,[6],0.6 mg/dL
same,DBIL,[6],0.008 mg/dL
same,GLC,[6],194.4 mg/dL
same,K,[6],4.5 meq/L
same,Na,[6],139.1 meq/L
same,PL,[6],133.4 mg/dL
same,RALB,[6],3.9 g/dL
same,TBIL,[6],0.3 mg/dL
same,TC,[6],78 mg/dL
same,TG,[6],35.4 mg/dL
same,TP,[6],6.1 g/dL
same,gamma-GTP,[6],1 IU/L
same,ALP,[7],735.2 IU/L
same,ALT,[7],37.8 IU/L
same,AST,[7],54.2 IU/L
same,BUN,[7],17.6 mg/dL
same,CRE,[7],0.6 mg/dL
same,DBIL,[7],0.01 mg/dL
same,GLC,[7],193.6 mg/dL
same,K,[7],4.6 meq/L
same,Na,[7],142 meq/L
same,PL,[7],145.4 mg/dL
same,RALB,[7],4.1 g/dL
same,TBIL,[7],0.2 mg/dL
same,TC,[7],78.8 mg/dL
same,TG,[7],48 mg/dL
same,TP,[7],6.4 g/dL
same,gamma-GTP,[7],1.6 IU/L
same,ALP,[8],448.2 IU/L
same,ALT,[8],35 IU/L
same,AST,[8],53.6 IU/L
same,BUN,[8],19 mg/dL
same,CRE,[8],0.6 mg/dL
same,DBIL,[8],0.012 mg/dL
same,GLC,[8],195.4 mg/dL
same,K,[8],4.1 meq/L
same,Na,[8],140.5 meq/L
same,PL,[8],135.4 mg/dL
same,RALB,[8],4.3 g/dL
same,TBIL,[8],0.3 mg/dL
same,TC,[8],73.4 mg/dL
same,TG,[8],48 mg/dL
same,TP,[8],6.8 g/dL
same,gamma-GTP,[8],0.8 IU/L
